Laboratory results taken from publication PMC9797307, “Measurement of Pharmacokinetics and Tissue Distribution of Four Compounds from Nauclea officinalis in Rat Plasma and Tissues through HPLC-MS/MS” (Journal of Analytical Methods in Chemistry, 2022).

Key:
[1] = Pharmacokinetic study in rat plasma after oral administration of Nauclea officinalis extracts (HPLC-MS/MS); assay type: in vivo, Male Sprague–Dawley (SD) rats; settings: oral Nauclea officinalis extracts 2 g/kg, noncompartment model, mean ± SD
Procedure: Chromatographic analysis was performed on the LC-20ADXR System (Shimadzu, Japan). The Phenomenex Kinete EVO C18 100 Å (50 mm × 2.1 mm, 5 μm) column was used as the analytical column maintained at 40°C with (A) 0.1% formic acid aqueous solution and (B) acetonitrile as the mobile phase. […] The flow rate was 0.8 mL/min, and the injection volume was 5 μL.
Mass spectrometric detection was performed on an AB-SCIEX API 4000 mass spectrometer (AB SCIEX, Singapore) with ESI in negative ion multiple reaction monitoring (MRM) mode. The optimized instrument parameters were as follows: nebulizer gas: 50 psi, heated by N2 gas: 55 psi, ion spray voltage: −4500 V and temperature: 550°C; nebulizer, blowback gas, and collision gas were nitrogen; declustering potential (DP), collision energy (CE), and collision cell exit potential (CXP) of the four analytes and chloramphenicol (IS) are shown in Table 1.
Six male SD rats were tested in pharmacokinetics studies. […] The blood samples (approximately 0.5 mL) were collected via the venous plexus of the eye socket at 0.083, 0.25, 0.5, 1, 2, 4, 6, 8, […], 12, and 24 h under anesthesia. Next, each sample was immediately centrifuged at 4000 rpm for 10 min to acquire the plasma. The plasma was transferred to new tubes and stored at −80°C until further use. The pharmacokinetics parameters of the four compounds in rat plasma were calculated by the noncompartment model using Drug and Statistics (DAS 3.3.0) software (Beijing, China).
Pharmacokinetic parameters of four compounds were calculated by noncompartmental model using DAS 3.3.0 software.

[2] = Stability of QC samples in rat plasma and tissue homogenates under different storage conditions; assay type: in vitro ADME; settings: in % (unit assumed)

- Cmax ([1]; male, Sprague-Dawley, n = 6, read-out: C max (maximum plasma concentration)): 242 ± 84.7 ng/mL
- MRT last ([1]; male, Sprague-Dawley, n = 6, read-out: MRT (0 − t)): 5.33 ± 0.65 h
- Vd/F ([1]; male, Sprague-Dawley, n = 6, read-out: Vz/F (apparent distribution volume)): 916 ± 452 L/kg
- half-life ([1]; male, Sprague-Dawley, n = 6, read-out: t1/2 (elimination half-life) (converted)): 10.6 ± 6.21 h
- AUC (0 − ∞) ([1]; n = 6): 554.37 ± 166.14 μg/L∗h
- CL (clearance rate) ([1]; n = 6): 1049 ± 266.7 mL/min/kg
- CL (clearance rate) ([1]; n = 6, listed as chlorogenic acid): 1049 ± 266.6 mL/min/kg
- Accuracy, Ambient temperature for 4 h ([2]; Brain, 2 ng/mL): 110.33 ± 7.55
- Accuracy, Three freeze-thraw cycles ([2]; Brain, 2 ng/mL): 105.65 ± 10.92
- Accuracy, −80°C for 30 days ([2]; Brain, 2 ng/mL): 90.73 ± 10.25
- Accuracy, Ambient temperature for 4 h ([2]; Brain, 4 ng/mL): 89.12 ± 9.00
- Accuracy, Three freeze-thraw cycles ([2]; Brain, 4 ng/mL): 90.68 ± 10.51
- Accuracy, −80°C for 30 days ([2]; Brain, 4 ng/mL): 105.32 ± 9.72
- Accuracy, Ambient temperature for 4 h ([2]; Brain, 100 ng/mL): 91.93 ± 9.93
- Accuracy, Three freeze-thraw cycles ([2]; Brain, 100 ng/mL): 108.13 ± 9.91
- Accuracy, −80°C for 30 days ([2]; Brain, 100 ng/mL): 105.48 ± 6.92
- Accuracy, Ambient temperature for 4 h ([2]; Brain, 2400 ng/mL): 102.93 ± 5.79
- Accuracy, Three freeze-thraw cycles ([2]; Brain, 2400 ng/mL): 96.57 ± 10.12
- Accuracy, −80°C for 30 days ([2]; Brain, 2400 ng/mL): 97.98 ± 9.56
- Accuracy, Ambient temperature for 4 h ([2]; Heart, 2 ng/mL): 102.73 ± 12.98
- Accuracy, Three freeze-thraw cycles ([2]; Heart, 2 ng/mL): 91.72 ± 6.33
- Accuracy, −80°C for 30 days ([2]; Heart, 2 ng/mL): 88.98 ± 5.73
- Accuracy, Ambient temperature for 4 h ([2]; Heart, 4 ng/mL): 96.88 ± 11.06
- Accuracy, Three freeze-thraw cycles ([2]; Heart, 4 ng/mL): 99.03 ± 10.17
- Accuracy, −80°C for 30 days ([2]; Heart, 4 ng/mL): 102.27 ± 10.30
- Accuracy, Ambient temperature for 4 h ([2]; Heart, 100 ng/mL): 112.83 ± 9.11
- Accuracy, Three freeze-thraw cycles ([2]; Heart, 100 ng/mL): 111.00 ± 7.72
- Accuracy, −80°C for 30 days ([2]; Heart, 100 ng/mL): 112.62 ± 8.15
- Accuracy, Ambient temperature for 4 h ([2]; Heart, 2400 ng/mL): 108.60 ± 8.41
- Accuracy, Three freeze-thraw cycles ([2]; Heart, 2400 ng/mL): 110.55 ± 8.11
- Accuracy, −80°C for 30 days ([2]; Heart, 2400 ng/mL): 104.85 ± 10.69
- Accuracy, Ambient temperature for 4 h ([2]; Kidney, 2 ng/mL): 110.07 ± 7.34
- Accuracy, Three freeze-thraw cycles ([2]; Kidney, 2 ng/mL): 97.22 ± 7.67
- Accuracy, −80°C for 30 days ([2]; Kidney, 2 ng/mL): 89.87 ± 9.23
- Accuracy, Ambient temperature for 4 h ([2]; Kidney, 4 ng/mL): 87.63 ± 7.76
- Accuracy, Three freeze-thraw cycles ([2]; Kidney, 4 ng/mL): 87.60 ± 9.26
- Accuracy, −80°C for 30 days ([2]; Kidney, 4 ng/mL): 89.60 ± 9.05
- Accuracy, Ambient temperature for 4 h ([2]; Kidney, 100 ng/mL): 112.00 ± 7.01
- Accuracy, Three freeze-thraw cycles ([2]; Kidney, 100 ng/mL): 111.17 ± 7.44
- Accuracy, −80°C for 30 days ([2]; Kidney, 100 ng/mL): 103.22 ± 11.32
- Accuracy, Ambient temperature for 4 h ([2]; Kidney, 2400 ng/mL): 100.55 ± 5.11
- Accuracy, Three freeze-thraw cycles ([2]; Kidney, 2400 ng/mL): 100.45 ± 3.96
- Accuracy, −80°C for 30 days ([2]; Kidney, 2400 ng/mL): 101.23 ± 4.69
- Accuracy, Ambient temperature for 4 h ([2]; Liver, 2 ng/mL): 88.47 ± 6.93
- Accuracy, Three freeze-thraw cycles ([2]; Liver, 2 ng/mL): 88.47 ± 7.22
- Accuracy, −80°C for 30 days ([2]; Liver, 2 ng/mL): 87.43 ± 7.74
- Accuracy, Ambient temperature for 4 h ([2]; Liver, 4 ng/mL): 86.27 ± 7.32
- Accuracy, Three freeze-thraw cycles ([2]; Liver, 4 ng/mL): 86.00 ± 6.23
- Accuracy, −80°C for 30 days ([2]; Liver, 4 ng/mL): 87.30 ± 4.35
- Accuracy, Ambient temperature for 4 h ([2]; Liver, 100 ng/mL): 99.82 ± 2.89
- Accuracy, Three freeze-thraw cycles ([2]; Liver, 100 ng/mL): 102.27 ± 4.97
- Accuracy, −80°C for 30 days ([2]; Liver, 100 ng/mL): 87.13 ± 5.77
- Accuracy, Ambient temperature for 4 h ([2]; Liver, 2400 ng/mL): 104.17 ± 2.14
- Accuracy, Three freeze-thraw cycles ([2]; Liver, 2400 ng/mL): 99.98 ± 1.86
- Accuracy, −80°C for 30 days ([2]; Liver, 2400 ng/mL): 87.02 ± 5.24
- Accuracy, Ambient temperature for 4 h ([2]; Lung, 2 ng/mL): 103.27 ± 8.01
- Accuracy, Three freeze-thraw cycles ([2]; Lung, 2 ng/mL): 112.93 ± 9.57
- Accuracy, −80°C for 30 days ([2]; Lung, 2 ng/mL): 113.77 ± 9.20
- Accuracy, Ambient temperature for 4 h ([2]; Lung, 4 ng/mL): 101.83 ± 6.41
- Accuracy, Three freeze-thraw cycles ([2]; Lung, 4 ng/mL): 100.07 ± 10.39
- Accuracy, −80°C for 30 days ([2]; Lung, 4 ng/mL): 98.77 ± 6.15
- Accuracy, Ambient temperature for 4 h ([2]; Lung, 100 ng/mL): 111.50 ± 5.47
- Accuracy, Three freeze-thraw cycles ([2]; Lung, 100 ng/mL): 110.17 ± 7.14
- Accuracy, −80°C for 30 days ([2]; Lung, 100 ng/mL): 110.03 ± 9.33
- Accuracy, Ambient temperature for 4 h ([2]; Lung, 2400 ng/mL): 100.67 ± 10.17
- Accuracy, Three freeze-thraw cycles ([2]; Lung, 2400 ng/mL): 104.88 ± 8.23
- Accuracy, −80°C for 30 days ([2]; Lung, 2400 ng/mL): 110.17 ± 4.54
- Accuracy, Ambient temperature for 4 h ([2]; Plasma, 2 ng/mL): 101.68 ± 8.39
- Accuracy, Three freeze-thraw cycles ([2]; Plasma, 2 ng/mL): 101.23 ± 12.44
- Accuracy, −80°C for 30 days ([2]; Plasma, 2 ng/mL): 93.35 ± 10.78
- Accuracy, Ambient temperature for 4 h ([2]; Plasma, 4 ng/mL): 86.78 ± 6.16
- Accuracy, Three freeze-thraw cycles ([2]; Plasma, 4 ng/mL): 95.02 ± 5.39
- Accuracy, −80°C for 30 days ([2]; Plasma, 4 ng/mL): 98.92 ± 12.32
- Accuracy, Ambient temperature for 4 h ([2]; Plasma, 100 ng/mL): 112.33 ± 3.72
- Accuracy, Three freeze-thraw cycles ([2]; Plasma, 100 ng/mL): 100.68 ± 6.22
- Accuracy, −80°C for 30 days ([2]; Plasma, 100 ng/mL): 113.17 ± 4.96
- Accuracy, Ambient temperature for 4 h ([2]; Plasma, 2400 ng/mL): 98.40 ± 5.56
- Accuracy, Three freeze-thraw cycles ([2]; Plasma, 2400 ng/mL): 91.98 ± 4.75
- Accuracy, −80°C for 30 days ([2]; Plasma, 2400 ng/mL): 112.67 ± 7.58
- Accuracy, Ambient temperature for 4 h ([2]; Small intestine, 2 ng/mL): 105.00 ± 8.20
- Accuracy, Three freeze-thraw cycles ([2]; Small intestine, 2 ng/mL): 103.90 ± 4.49
- Accuracy, −80°C for 30 days ([2]; Small intestine, 2 ng/mL): 101.42 ± 7.82
- Accuracy, Ambient temperature for 4 h ([2]; Small intestine, 4 ng/mL): 91.73 ± 4.49
- Accuracy, Three freeze-thraw cycles ([2]; Small intestine, 4 ng/mL): 99.78 ± 7.70
- Accuracy, −80°C for 30 days ([2]; Small intestine, 4 ng/mL): 106.70 ± 5.43
- Accuracy, Ambient temperature for 4 h ([2]; Small intestine, 100 ng/mL): 95.90 ± 12.31
- Accuracy, Three freeze-thraw cycles ([2]; Small intestine, 100 ng/mL): 100.93 ± 12.33
- Accuracy, −80°C for 30 days ([2]; Small intestine, 100 ng/mL): 99.07 ± 12.41
- Accuracy, Ambient temperature for 4 h ([2]; Small intestine, 2400 ng/mL): 112.00 ± 5.37
- Accuracy, Three freeze-thraw cycles ([2]; Small intestine, 2400 ng/mL): 111.67 ± 6.12
- Accuracy, −80°C for 30 days ([2]; Small intestine, 2400 ng/mL): 110.83 ± 6.68
- Accuracy, Ambient temperature for 4 h ([2]; Spleen, 2 ng/mL): 97.62 ± 8.11
- Accuracy, Three freeze-thraw cycles ([2]; Spleen, 2 ng/mL): 105.55 ± 7.56
- Accuracy, −80°C for 30 days ([2]; Spleen, 2 ng/mL): 109.70 ± 13.05
- Accuracy, Ambient temperature for 4 h ([2]; Spleen, 4 ng/mL): 105.82 ± 9.91
- Accuracy, Three freeze-thraw cycles ([2]; Spleen, 4 ng/mL): 103.68 ± 9.71
- Accuracy, −80°C for 30 days ([2]; Spleen, 4 ng/mL): 98.88 ± 4.16
- Accuracy, Ambient temperature for 4 h ([2]; Spleen, 100 ng/mL): 112.00 ± 7.82
- Accuracy, Three freeze-thraw cycles ([2]; Spleen, 100 ng/mL): 106.82 ± 6.88
- Accuracy, −80°C for 30 days ([2]; Spleen, 100 ng/mL): 111.17 ± 7.17
- Accuracy, Ambient temperature for 4 h ([2]; Spleen, 2400 ng/mL): 101.52 ± 7.73
- Accuracy, Three freeze-thraw cycles ([2]; Spleen, 2400 ng/mL): 106.67 ± 5.43
- Accuracy, −80°C for 30 days ([2]; Spleen, 2400 ng/mL): 104.73 ± 7.04
- Accuracy, Ambient temperature for 4 h ([2]; Stomach, 2 ng/mL): 113.08 ± 11.06
- Accuracy, Three freeze-thraw cycles ([2]; Stomach, 2 ng/mL): 113.58 ± 8.22
- Accuracy, −80°C for 30 days ([2]; Stomach, 2 ng/mL): 109.08 ± 9.97
- Accuracy, Ambient temperature for 4 h ([2]; Stomach, 4 ng/mL): 102.70 ± 10.17
- Accuracy, Three freeze-thraw cycles ([2]; Stomach, 4 ng/mL): 98.87 ± 9.82
- Accuracy, −80°C for 30 days ([2]; Stomach, 4 ng/mL): 89.87 ± 7.04
- Accuracy, Ambient temperature for 4 h ([2]; Stomach, 100 ng/mL): 93.75 ± 8.65
- Accuracy, Three freeze-thraw cycles ([2]; Stomach, 100 ng/mL): 93.47 ± 6.76
- Accuracy, −80°C for 30 days ([2]; Stomach, 100 ng/mL): 107.33 ± 5.89
- Accuracy, Ambient temperature for 4 h ([2]; Stomach, 2400 ng/mL): 107.17 ± 8.68
- Accuracy, Three freeze-thraw cycles ([2]; Stomach, 2400 ng/mL): 100.23 ± 4.63
- Accuracy, −80°C for 30 days ([2]; Stomach, 2400 ng/mL): 99.73 ± 10.09
SMILES: O=C(/C=C/c1ccc(O)c(O)c1)O[C@@H]1C[C@](O)(C(=O)O)C[C@@H](O)[C@H]1O [Chlorogenic acid]
